# Laboratory results taken from patent US12649727B2, “EFGR inhibitor, preparation method therefor and application thereof” (Abbisko Therapeutics Co., Ltd, priority 2020, dated 2026).
# Assays:
# Format in all cases: cell-based
# A431 (EGFR-WT) = experiment: Proliferation experiment, A431 cell line (CellTiter-Glo); conditions: Homo sapiens, A-431; A431 cells, cultured for 72 hrs with compound, CTG analysis
# [1] = target: Ba/F3 EGFR-D770-N771ins_SVD (Homo sapiens, UniProt P00533, DUP768-770, cells depend on it); experiment: Proliferation experiment of Ba/F3 cell line, EGFR-D770-N771ins_SVD (CellTiter-Glo); conditions: cultured for 72 hrs with compound, CTG analysis, read-out: Ba/F3 EGFR-D770-N771ins_SVD IC50
# Chain of Ba/F3 EGFR-D770-N771ins_SVD (P00533 with tags, fused parts or gaps DUP768-770): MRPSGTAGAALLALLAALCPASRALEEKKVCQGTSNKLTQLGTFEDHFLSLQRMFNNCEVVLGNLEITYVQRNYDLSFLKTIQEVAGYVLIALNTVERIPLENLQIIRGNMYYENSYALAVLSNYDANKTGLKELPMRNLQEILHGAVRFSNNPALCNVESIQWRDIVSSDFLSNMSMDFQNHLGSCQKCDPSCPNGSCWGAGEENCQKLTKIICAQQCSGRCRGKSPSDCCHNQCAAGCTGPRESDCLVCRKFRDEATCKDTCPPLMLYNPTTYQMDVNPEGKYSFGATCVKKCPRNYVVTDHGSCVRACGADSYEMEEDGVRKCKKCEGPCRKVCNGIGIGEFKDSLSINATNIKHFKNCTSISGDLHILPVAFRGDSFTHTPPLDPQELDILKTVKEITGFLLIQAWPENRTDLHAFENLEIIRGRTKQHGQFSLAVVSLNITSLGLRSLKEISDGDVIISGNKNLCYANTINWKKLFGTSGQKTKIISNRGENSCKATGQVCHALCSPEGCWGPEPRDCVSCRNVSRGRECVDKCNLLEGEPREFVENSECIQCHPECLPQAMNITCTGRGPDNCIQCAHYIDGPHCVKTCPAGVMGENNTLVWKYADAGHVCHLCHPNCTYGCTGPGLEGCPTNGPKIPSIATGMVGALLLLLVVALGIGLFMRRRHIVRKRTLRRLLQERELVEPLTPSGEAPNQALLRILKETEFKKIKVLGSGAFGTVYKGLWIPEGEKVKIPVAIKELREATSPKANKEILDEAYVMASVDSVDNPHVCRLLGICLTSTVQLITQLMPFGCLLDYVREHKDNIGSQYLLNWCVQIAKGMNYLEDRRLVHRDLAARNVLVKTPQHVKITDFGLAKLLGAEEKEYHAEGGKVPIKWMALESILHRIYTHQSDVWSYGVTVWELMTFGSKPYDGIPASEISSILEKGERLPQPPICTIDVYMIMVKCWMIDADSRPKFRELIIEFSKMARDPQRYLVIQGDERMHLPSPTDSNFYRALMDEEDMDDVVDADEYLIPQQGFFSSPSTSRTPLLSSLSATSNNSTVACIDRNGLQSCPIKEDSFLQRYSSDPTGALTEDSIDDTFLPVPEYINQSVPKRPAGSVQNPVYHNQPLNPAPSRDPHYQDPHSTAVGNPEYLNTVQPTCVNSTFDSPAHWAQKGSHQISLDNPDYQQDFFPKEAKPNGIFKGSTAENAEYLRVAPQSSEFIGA
# In short: (§1)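 […] Ba/F3 cells expressing EGFR insertion mutants treated 72 h at 37 °C with 9 concentrations, 3.16-fold dilutions, top 10 μM, 0.1% DMSO, in triplicate. Viability by CellTiter-Glo luminescence with T0 reference plate; IC50 (nM) from non-linear dose-response fit.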
# [2] = target: Ba/F3 EGFR-V769_D770insASV (Homo sapiens, UniProt P00533, DUP767-769, cells depend on it); experiment: Proliferation experiment of Ba/F3 cell line, EGFR-V769_D770insASV (CellTiter-Glo); conditions: cultured for 72 hrs with compound, CTG analysis, read-out: Ba/F3 EGFR-V769_D770insASV IC50
# Chain of Ba/F3 EGFR-V769_D770insASV (P00533 with tags, fused parts or gaps DUP767-769): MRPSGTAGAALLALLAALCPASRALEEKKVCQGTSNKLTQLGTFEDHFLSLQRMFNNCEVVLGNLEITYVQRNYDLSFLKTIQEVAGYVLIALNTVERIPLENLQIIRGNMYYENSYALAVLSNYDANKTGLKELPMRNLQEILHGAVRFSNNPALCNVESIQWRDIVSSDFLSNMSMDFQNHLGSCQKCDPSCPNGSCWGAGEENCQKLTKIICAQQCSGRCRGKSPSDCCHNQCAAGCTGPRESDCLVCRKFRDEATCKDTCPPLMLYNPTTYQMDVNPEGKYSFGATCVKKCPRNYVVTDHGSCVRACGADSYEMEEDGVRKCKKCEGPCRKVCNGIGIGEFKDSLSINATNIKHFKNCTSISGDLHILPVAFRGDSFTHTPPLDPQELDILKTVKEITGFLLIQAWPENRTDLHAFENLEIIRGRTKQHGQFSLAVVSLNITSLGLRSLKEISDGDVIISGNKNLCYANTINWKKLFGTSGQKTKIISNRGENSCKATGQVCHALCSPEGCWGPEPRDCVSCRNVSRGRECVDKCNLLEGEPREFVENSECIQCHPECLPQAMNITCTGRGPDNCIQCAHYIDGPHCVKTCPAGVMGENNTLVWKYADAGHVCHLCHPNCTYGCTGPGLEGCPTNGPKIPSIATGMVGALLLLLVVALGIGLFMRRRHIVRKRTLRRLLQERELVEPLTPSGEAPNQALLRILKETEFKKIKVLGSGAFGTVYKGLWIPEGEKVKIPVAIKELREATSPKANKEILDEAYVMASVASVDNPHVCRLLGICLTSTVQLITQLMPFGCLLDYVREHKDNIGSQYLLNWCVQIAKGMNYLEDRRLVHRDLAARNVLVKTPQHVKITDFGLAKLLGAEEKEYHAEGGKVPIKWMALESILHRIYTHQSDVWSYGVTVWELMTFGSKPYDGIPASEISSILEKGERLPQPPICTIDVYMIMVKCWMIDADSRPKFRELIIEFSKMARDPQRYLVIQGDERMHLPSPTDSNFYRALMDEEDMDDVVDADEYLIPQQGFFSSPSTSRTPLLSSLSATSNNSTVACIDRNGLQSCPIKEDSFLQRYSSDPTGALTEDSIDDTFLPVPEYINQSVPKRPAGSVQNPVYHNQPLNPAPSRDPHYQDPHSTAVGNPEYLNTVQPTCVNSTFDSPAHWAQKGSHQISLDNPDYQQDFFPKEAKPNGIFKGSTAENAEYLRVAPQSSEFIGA
# In short: as §1
Structure (SMILES),IC50 (A431 (EGFR-WT)),GI50 [1],GI50 [2]
"C=C(F)C(=O)Nc1cc2c(Nc3ccnc(-c4ccccc4F)c3)ncnc2cc1OCC [Example 87, 2-fluoro-N-(4-((2-(2-fluorophenyl)pyridin-4-yl)amino)-7-ethoxyquinazolin-6-yl)acrylamide]",487 nM,4.1 nM,10.7 nM
"C=C(F)C(=O)Nc1cc2c(Nc3ccnc(-c4ccccc4F)c3)ncnc2cc1OCC(F)(F)F [Example 88, 2-fluoro-N-(4-((2-(2-fluorophenyl)pyridin-4-yl)amino)-7-(2,2,2-trifluoroethoxy)quinazolin-6-yl)acrylamide]",687 nM,10.1 nM,25.5 nM
"C=C(F)C(=O)Nc1cc2c(Nc3ccnc(-c4ccccc4F)c3)ncnc2cc1OC1CC1 [Example 90, N-(7-cyclopropoxy-4-((2-(2-fluorophenyl)pyridin-4-yl)amino)quinazolin-6-yl)-2-fluoroacrylamide]",461 nM,11.9 nM,35.8 nM
"C=C(F)C(=O)Nc1cc2c(Nc3ccnc(-c4ccccc4F)c3)ncnc2cc1OCC1CC1 [Example 91, N-(7-(cyclopropylmethoxy)-4-((2-(2-fluorophenyl)pyridin-4-yl)amino)quinazolin-6-yl)-2-fluoroacrylamide]",655 nM,12.7 nM,32.7 nM
"C=CC(=O)Nc1cc2c(Nc3ccnc(-c4ccccc4F)c3)ncnc2cc1F [Example 92, N-(7-fluoro-4-((2-(2-fluorophenyl)pyridin-4-yl)amino)quinazolin-6-yl)acrylamide]",355 nM,30.5 nM,16.7 nM
"C=C(F)C(=O)Nc1cc2c(Nc3ccnc(-c4ccccc4F)c3)ncnc2cc1F [Example 93, 2-fluoro-N-(7-fluoro-4-((2-(2-fluorophenyl)pyridin-4-yl)amino)quinazolin-6-yl)acrylamide]",877 nM,14.5 nM,51.1 nM
"C=CC(=O)Nc1cc2c(Nc3ccnc(-c4ccccc4F)c3)ncnc2cc1N1CCOCC1 [Example 94, N-(4-((2-(2-fluorophenyl)pyridin-4-yl)amino)-7-morpholinoquinazolin-6-yl)acrylamide]",2330 nM,1.4 nM,1.9 nM
"C=C(F)C(=O)Nc1cc2c(Nc3ccnc(-c4ccccc4F)c3)ncnc2cc1N1CCOCC1 [Example 95, 2-fluoro-N-(4-((2-(2-fluorophenyl)pyridin-4-yl)amino)-7-morpholinoquinazolin-6-yl)acrylamide]",1820 nM,3.3 nM,8.3 nM
"C=CC(=O)Nc1cc2c(Nc3ccnc(-c4ccccc4F)c3)ncnc2cc1N1CCC(N2CCOCC2)CC1 [Example 98, N-(4-((2-(2-fluorophenyl)pyridin-4-yl)amino)-7-(4-morpholinopiperidin-1-yl)quinazolin-6-yl)acrylamide]",1530 nM,2 nM,6.3 nM
"C=CC(=O)Nc1cc2c(Nc3ccnc(-c4ccccc4F)c3)ncnc2cc1N1CCC(N2CCN(C)CC2)CC1 [Example 99, N-(4-((2-(2-fluorophenyl)pyridin-4-yl)amino)-7-(4-(4-methylpiperazin-1-yl)piperidin-1-yl)quinazolin-6-yl)acrylamide]",315 nM,2.8 nM,6.1 nM
"C=C(F)C(=O)Nc1cc2c(Nc3ccnc(-c4ccccc4F)c3)ncnc2cc1N1CCC(O)CC1 [Example 100, 2-fluoro-N-(4-((2-(2-fluorophenyl)pyridin-4-yl)amino)-7-(4-hydroxypiperidin-1-yl)quinazolin-6-yl)acrylamide]",225 nM,4.4 nM,14.8 nM
"C=C(F)C(=O)Nc1cc2c(Nc3ccnc(-c4ccccc4F)c3)ncnc2cc1N1CCC(N2CCOCC2)CC1 [Example 102, 2-fluoro-N-(4-((2-(2-fluorophenyl)pyridin-4-yl)amino)-7-(4-morpholinopiperidin-1-yl)quinazolin-6-yl)acrylamide]",733 nM,6.1 nM,17 nM
"C=C(F)C(=O)Nc1cc2c(Nc3ccnc(-c4ccccc4F)c3)ncnc2cc1N1CCC(N2CCN(C)CC2)CC1 [Example 103, 2-fluoro-N-(4-((2-(2-fluorophenyl)pyridin-4-yl)amino)-7-(4-(4-methylpiperazin-1-yl)piperidin-1-yl)quinazolin-6-yl)acrylamide]",15 nM,30 nM,6.1 nM
"C=C(F)C(=O)Nc1cc2c(Nc3ccnc(-c4ccccc4F)c3)ncnc2cc1N1CCC1 [Example 105, N-(7-(azetidin-1-yl)-4-((2-(2-fluorophenyl)pyridin-4-yl)amino)quinazolin-6-yl)-2-fluoroacrylamide]",2500 nM,12.7 nM,35 nM
"C=CC(=O)Nc1cc2c(Nc3ccnc(-c4ccccc4F)c3)ncnc2cc1O[C@@H]1CCN(CCOC)C1 [Example 111, (R)—N-(4-((2-(2-fluorophenyl)pyridin-4-yl)amino)-7-((1-(2-methoxyethyl)pyrrolidin-3-yl)oxy)quinazolin-6-yl)acrylamide]",84.6 nM,1.8 nM,3.4 nM
"C=CC(=O)Nc1cc2c(Nc3ccnc(-c4ccccc4F)c3)ncnc2cc1O[C@@H]1CCN(CCO)C1 [Example 112, (R)—N-(4-((2-(2-fluorophenyl)pyridin-4-yl)amino)-7-((1-(2-hydroxyethyl)pyrrolidin-3-yl)oxy)quinazolin-6-yl)acrylamide]",89.3 nM,1.4 nM,3.6 nM
"C=CC(=O)Nc1cc2c(Nc3ccnc(-c4ccccc4F)c3)ncnc2cc1O[C@@H]1CCN(C2CC2)C1 [Example 113, (R)—N-(7-((1-cyclopropylpyrrolidin-3-yl)oxy)-4-((2-(2-fluorophenyl)pyridin-4-yl)amino)quinazolin-6-yl)acrylamide]",173 nM,3.9 nM,11.6 nM
"C=CC(=O)Nc1cc2c(Nc3ccnc(-c4ccccc4F)c3)ncnc2cc1O[C@@H]1CCN(C2COC2)C1 [Example 114, (R)—N-(4-((2-(2-fluorophenyl)pyridin-4-yl)amino)-7-((1-(oxetan-3-yl)pyrrolidin-3-yl)oxy)quinazolin-6-yl)acrylamide]",26.3 nM,1.1 nM,3.3 nM
"C=CC(=O)Nc1cc2c(Nc3ccnc(-c4ccccc4F)c3)ncnc2cc1O[C@@H]1CCN(C2CCN(C)CC2)C1 [Example 116, (R)-N-(4-((2-(2-fluorophenyl)pyridin-4-yl)amino)-7-((1-(1-methylpiperidin-4-yl)pyrrolidin-3-yl)oxy)quinazolin-6-yl)acrylamide]",142 nM,3 nM,3.4 nM
"C=C(F)C(=O)Nc1cc2c(Nc3ccnc(-c4ccccc4F)c3)ncnc2cc1O[C@@H]1CCN(C2COC2)C1 [Example 118, (R)-2-fluoro-N-(4-((2-(2-fluorophenyl)pyridin-4-yl)amino)-7-((1-(oxetan-3-yl)pyrrolidin-3-yl)oxy)quinazolin-6-yl)acrylamide]",19.1 nM,2.6 nM,9.8 nM
"C=C(F)C(=O)Nc1cc2c(Nc3ccnc(-c4ccccc4F)c3)ncnc2cc1O[C@@H]1CCN(C2CCOCC2)C1 [Example 121, (R)-2-fluoro-N-(4-((2-(2-fluorophenyl)pyridin-4-yl)amino)-7-((1-(tetrahydro-2H-pyran-4-yl)pyrrolidin-3-yl)oxy)quinazolin-6-yl)acrylamide]",44.1 nM,6.5 nM,16.5 nM
"C=CC(=O)Nc1cc2c(Nc3ccnc(-c4ccccc4F)c3)ncnc2cc1OCCCN1CCN(CCO)CC1 [Example 122, N-(4-((2-(2-fluorophenyl)pyridin-4-yl)amino)-7-(3-(4-(2-hydroxyethyl)piperazin-1-yl)propoxy)quinazolin-6-yl)acrylamide]",63.9 nM,3.8 nM,6.8 nM
"C=CC(=O)Nc1cc2c(Nc3ccnc(-c4ccccc4F)c3)ncnc2cc1OCCCN1CCN(CCOC)CC1 [Example 123, N-(4-((2-(2-fluorophenyl)pyridin-4-yl)amino)-7-(3-(4-(2-methoxyethyl)piperazin-1-yl)propoxy)quinazolin-6-yl)acrylamide]",20.5 nM,1.6 nM,2.4 nM
"C=CC(=O)Nc1cc2c(Nc3ccnc(-c4ccccc4F)c3)ncnc2cc1O[C@@H]1CCN(CC)C1 [Example 124, (R)-N-(7-((1-ethylpyrrolidin-3-yl)oxy)-4-((2-(2-fluorophenyl)pyridin-4-yl)amino)quinazolin-6-yl)acrylamide]",104 nM,2.9 nM,9.1 nM
"C=CC(=O)Nc1cc2c(Nc3ccnc(-c4ccccc4F)c3)ncnc2cc1O[C@@H]1CCN(C(C)C)C1 [Example 125, (R)-N-(4-((2-(2-fluorophenyl)pyridin-4-yl)amino)-7-((1-isopropylpyrrolidin-3-yl)oxy)quinazolin-6-yl)acrylamide]",86.5 nM,2.4 nM,7.8 nM
